“Also recorded” adds a separate entry of the source.
Experiments:
ISC-enriched organoids [1] = experiment: Secondary (validation) screen, 384-well 2.5-D, ENR+CD 6 days, n=8 wells, vs ENR+CD+DMSO control: basal lysozyme secretion (LYZ.NS); type: cell-based, murine; set-up: key to Dose.FC.LYZ.NS: log10 fold change vs median of vehicle control wells
Method: (§1) Drugs were tested at a narrowed dose range around each treatment's identified optimal dose from the primary screen (4× below, 2× above and below).
(§2) High-throughput screening.
(§3) Secondary lysozyme secretion assay screen. Confirmatory secondary screening with primary hits was performed using the above 384-well plate method. The screen was conducted with 4-plate replicates with a base media of ENR+CD. Media was supplemented with compound at day 0 and day 3 (n=8 well replicates per dose) at four different doses: two-fold above, two-fold below, and four-fold below the optimal final dose for each respective treatment. Additionally, each plate carried a large number of ENR+DMSO or ENR+CD+DMSO (vehicle) control wells (n=100 for ATP, and n=25 for LYZ.NS and LYZ.S) for robust normalization. ATP, non-stimulated lysozyme activity and CCh-stimulated lysozyme activity was again measured and the collected data was again processed in a custom R-script, per primary screen with slight modification. Values were log10 transformed, and a plate-wise FC was calculated for each well based on the median value of ENR+CD+DMSO (vehicle) control wells to normalize plate to plate variability.

ISC-enriched organoids [2] = experiment: Primary screen, 384-well 2.5-D organoid differentiation (ENR+CD, 6 days): carbachol-induced lysozyme secretion (LYZ.S); type: cell-based, murine; conditions: primary screen; for Dose.FC.LYZ.S: FC vs plate median; for Dose.FC.LYZ.S (log 2 fold change): vs plate median
Description: as §2

ISC-enriched organoids [3] = experiment: Secondary (validation) screen, 384-well 2.5-D, ENR+CD 6 days, n=8 wells, vs ENR+CD+DMSO control: carbachol-induced lysozyme secretion (LYZ.S); type: cell-based, murine
Method: as §1, §2, §3

ISC-enriched organoids [4] = experiment: Primary screen, 384-well 2.5-D organoid differentiation (ENR+CD, 6 days, Target Selective Inhibitor Library, vs whole-plate median): ATP (CellTiter-Glo 3D, CTG); conditions: for Dose.FC.CTG / Z.CTG (standard z score) / Dose.FC.CTG (log 2 fold change): primary screen; for Dose.FC.CTG: FC vs plate median; for Z.CTG: standard z score of FC; for Dose.FC.CTG (log 2 fold change): vs plate median
ISC-enriched organoids [5] = experiment: Primary screen, 384-well 2.5-D organoid differentiation (ENR+CD, 6 days): basal lysozyme secretion (LYZ.NS); type: cell-based, murine; conditions: for Dose.FC.LYZ.NS / Z.LYZ.NS (standard z score) / Dose.FC.LYZ.NS (log 2 fold change): primary screen; for Dose.FC.LYZ.NS: FC vs plate median; for Z.LYZ.NS: standard z score of FC; for Dose.FC.LYZ.NS (log 2 fold change): vs plate median
Description: as §2

ISC-enriched organoids [6] = experiment: Secondary (validation) screen, 384-well 2.5-D, ENR+CD 6 days, n=8 wells, vs ENR+CD+DMSO control: ATP (CTG); type: cell-based, murine; set-up: key to Dose.FC.CTG: log10 fold change vs median of vehicle control wells
Method: as §1, §2, §3

ISC-enriched organoids [7] = experiment: Lysozyme secretion assay, 3-D organoids in ENR+CD, normalized to ATP; type: cell-based, murine; conditions: for Paneth cell differentiation (functional LYZ secretion), in combination with KPT-330: 6-day ENR+CD differentiation with 160 nM KPT-330; for Paneth cell differentiation (functional LYZ secretion), compound alone: 6-day ENR+CD differentiation, 10 μM SR11302, 20 nM Cobimetinib, others over a dose range
Method: Lysozyme assay (3D culture). ISC-enriched organoids cultured in 3D Matrigel with ENRCV media were passaged to 48-well plate in 3D Matrigel with ENRCV. At day zero, media were replaced to ENR or ENRCD with or without indicated compounds, and media were replaced every other day. At day six, cells were washed twice with basal media and treated with carbamylcholine chloride (Sigma, C4382) for 3 hours. Media were collected and lysozyme activity was measured by EnzChek Lysozyme Assay Kit (ThermoFisher, E22013).
(§4) Lysozyme secretion assay. ISC-enriched organoids in 3D Matrigel culture were passaged to a 48- or 96-well plate and cultured with ENR or ENR+CD media containing DMSO or each drug for 6 days. DMSO- or drug-containing media were changed every other day. On day 6, cells were washed with basal media twice and treated with basal media with or without 10 μM carbamoylcholine chloride for 3 h in a CO2 incubator at 37° C. A part of the conditioned media was collected and used for lysozyme assay (Thermo, E-22013) following the manufacturer's instruction. The fluorescence was measured using excitation/emission of 485/530 nm. CellTiter-Glo 3D Reagent (Promega, G9681) was added afterward, and the cell culture plate was incubated on an orbital shaker at RT for 30 min to induce cell lysis and to stabilize the luminescent signal. The solution was replaced to a 96-well white microplate, and luminescent signals were measured by a microplate reader (infinite M200, Tecan). The standard curve was prepared by diluting recombinant ATP (Promega, P1132). For both assays, a polynomial cubic curve was fitted to a set of standard data, and each sample value was calculated on the Microsoft Excel.
as §4, with “in 3-D” for “in 3D”, “μM carbachol” for “μM carbamoylcholine chloride”, “3 hours” for “3 h”, “C. Conditioned” for “C. A part of the conditioned”, “nm. CTG” for “nm. CellTiter-Glo”, “Reagent” for “Reagent (Promega, G9681)”

## CCc1cncnc1N1CCN(Cc2nc3ccc(C(F)(F)F)cc3[nH]2)CC1 [PF-4708671]
ISC-enriched organoids [1]; Dose 0.50 uM
  Dose.FC.LYZ.NS: 0.005
  Z.LYZ.NS: 0.039
  repSSMD.LYZ.NS: 0.058
ISC-enriched organoids [1]; Dose 1.00 uM
  Dose.FC.LYZ.NS: −0.200
  Z.LYZ.NS: −1.600
  repSSMD.LYZ.NS: −1.909
ISC-enriched organoids [1]; Dose 4.00 uM
  Dose.FC.LYZ.NS: 0.015
  Z.LYZ.NS: 0.120
  repSSMD.LYZ.NS: 0.171
ISC-enriched organoids [1]; dose 2.00 uM
  Dose.FC.LYZ.NS: −0.221
  Z.LYZ.NS: −1.764
  repSSMD.LYZ.NS: −2.529
ISC-enriched organoids [2]; Dose 0.08 uM
  Dose.FC.LYZ.S: 0.136 log 2 fold change
ISC-enriched organoids [2]; Dose 0.40 uM
  Dose.FC.LYZ.S: 0.172 log 2 fold change
ISC-enriched organoids [2]; Dose 2.00 uM
  Dose.FC.LYZ.S: 0.209 log 2 fold change
ISC-enriched organoids [2]; Dose 10.00 uM
  Dose.FC.LYZ.S: −0.024 log 2 fold change
ISC-enriched organoids [3]; Dose 0.50 uM
  Z.LYZ.S: −0.305
  log10 fold change in stimulated lysozyme secretion vs vehicle control: −0.040
  repSSMD.LYZ.S: −0.496
ISC-enriched organoids [3]; Dose 1.00 uM
  Z.LYZ.S: −1.879
  log10 fold change in stimulated lysozyme secretion vs vehicle control: −0.245
  repSSMD.LYZ.S: −2.451
ISC-enriched organoids [3]; Dose 4.00 uM
  Z.LYZ.S: −0.320
  log10 fold change in stimulated lysozyme secretion vs vehicle control: −0.042
  repSSMD.LYZ.S: −0.503
ISC-enriched organoids [3]; dose 2.00 uM
  Z.LYZ.S: −2.088
  log10 fold change in stimulated lysozyme secretion vs vehicle control: −0.272
  repSSMD.LYZ.S: −3.604
ISC-enriched organoids [4]; Dose 0.08 uM
  Dose.FC.CTG: 0.261 log 2 fold change
  Z.CTG: 0.623
ISC-enriched organoids [4]; Dose 0.40 uM
  Dose.FC.CTG: 0.268 log 2 fold change
  Z.CTG: 0.640
ISC-enriched organoids [4]; Dose 2.00 uM
  Dose.FC.CTG: 0.302 log 2 fold change
  Z.CTG: 0.721
ISC-enriched organoids [4]; Dose 10.00 uM
  Dose.FC.CTG: −0.321 log 2 fold change
  Z.CTG: −0.766
ISC-enriched organoids [5]; Dose 0.08 uM
  Dose.FC.LYZ.NS: 0.075 log 2 fold change
  Z.LYZ.NS: 0.654
ISC-enriched organoids [5]; Dose 0.40 uM
  Dose.FC.LYZ.NS: 0.122 log 2 fold change
  Z.LYZ.NS: 1.059
ISC-enriched organoids [5]; Dose 2.00 uM
  Dose.FC.LYZ.NS: 0.198 log 2 fold change
  Z.LYZ.NS: 1.721
ISC-enriched organoids [5]; Dose 10.00 uM
  Dose.FC.LYZ.NS: 0.034 log 2 fold change
  Z.LYZ.NS: 0.297
ISC-enriched organoids [6]; Dose 0.50 uM
  Dose.FC.CTG: −0.049
  Z.CTG: −0.443
  repSSMD.CTG: −0.324
ISC-enriched organoids [6]; Dose 1.00 uM
  Dose.FC.CTG: −0.039
  Z.CTG: −0.354
  repSSMD.CTG: −0.284
ISC-enriched organoids [6]; Dose 4.00 uM
  Dose.FC.CTG: 0.067
  Z.CTG: 0.601
  repSSMD.CTG: 0.414
ISC-enriched organoids [6]; dose 2.00 uM
  Dose.FC.CTG: −0.076
  Z.CTG: −0.684
  repSSMD.CTG: −0.558

## NC(=O)c1ccc(-c2nc(-c3ccccn3)c(-c3ccc4c(c3)OCO4)[nH]2)cc1 [SB431542]
ISC-enriched organoids [1]; Dose 0.06 uM
  Dose.FC.LYZ.NS: 0.089
  Z.LYZ.NS: 0.709
  repSSMD.LYZ.NS: 1.073
ISC-enriched organoids [1]; Dose 0.24 uM
  Dose.FC.LYZ.NS: 0.105
  Z.LYZ.NS: 0.838
  repSSMD.LYZ.NS: 0.830
ISC-enriched organoids [1]; Dose 0.48 uM
  Dose.FC.LYZ.NS: −0.016
  Z.LYZ.NS: −0.128
  repSSMD.LYZ.NS: −0.149
ISC-enriched organoids [1]; Dose […]
  Dose.FC.LYZ.NS: 0.116
ISC-enriched organoids [2]; Dose 0.08 uM
  Dose.FC.LYZ.S (log 2 fold change): 0.135
ISC-enriched organoids [2]; Dose 0.40 uM
  Dose.FC.LYZ.S (log 2 fold change): 0.309
ISC-enriched organoids [2]; Dose 2.00 uM
  Dose.FC.LYZ.S (log 2 fold change): 0.223
ISC-enriched organoids [2]; Dose 10.00 uM
  Dose.FC.LYZ.S (log 2 fold change): 0.126
ISC-enriched organoids [3]; Dose 0.06 uM
  Z.LYZ.S: 0.514
  log10 fold change in stimulated lysozyme secretion vs vehicle control: 0.067
  repSSMD.LYZ.S: 0.855
ISC-enriched organoids [3]; Dose 0.24 uM
  Z.LYZ.S: 0.211
  log10 fold change in stimulated lysozyme secretion vs vehicle control: 0.027
  repSSMD.LYZ.S: 0.301
ISC-enriched organoids [3]; Dose 0.48 uM
  Z.LYZ.S: −0.387
  log10 fold change in stimulated lysozyme secretion vs vehicle control: −0.050
  repSSMD.LYZ.S: −0.449
ISC-enriched organoids [3]; Dose […]
  log10 fold change in stimulated lysozyme secretion vs vehicle control: 0.072
ISC-enriched organoids [4]; Dose 0.08 uM
  Z.CTG (standard z score): 0.907
  Dose.FC.CTG (log 2 fold change): 0.380
ISC-enriched organoids [4]; Dose 0.40 uM
  Z.CTG (standard z score): 1.130
  Dose.FC.CTG (log 2 fold change): 0.473
ISC-enriched organoids [4]; Dose 2.00 uM
  Z.CTG (standard z score): 0.754
  Dose.FC.CTG (log 2 fold change): 0.316
ISC-enriched organoids [4]; Dose 10.00 uM
  Z.CTG (standard z score): 0.370
  Dose.FC.CTG (log 2 fold change): 0.155
ISC-enriched organoids [5]; Dose 0.08 uM
  Z.LYZ.NS (standard z score): 1.225
  Dose.FC.LYZ.NS (log 2 fold change): 0.141
ISC-enriched organoids [5]; Dose 0.40 uM
  Z.LYZ.NS (standard z score): 1.514
  Dose.FC.LYZ.NS (log 2 fold change): 0.174
ISC-enriched organoids [5]; Dose 2.00 uM
  Z.LYZ.NS (standard z score): 1.632
  Dose.FC.LYZ.NS (log 2 fold change): 0.187
ISC-enriched organoids [5]; Dose 10.00 uM
  Z.LYZ.NS (standard z score): 0.346
  Dose.FC.LYZ.NS (log 2 fold change): 0.040
ISC-enriched organoids [6]; Dose 0.06 uM
  Dose.FC.CTG: 0.160
  Z.CTG: 1.439
  repSSMD.CTG: 0.654
ISC-enriched organoids [6]; Dose 0.24 uM
  Dose.FC.CTG: 0.023
  Z.CTG: 0.206
  repSSMD.CTG: 0.141
ISC-enriched organoids [6]; Dose 0.48 uM
  Dose.FC.CTG: 0.083
  Z.CTG: 0.752
  repSSMD.CTG: 0.527
ISC-enriched organoids [6]; Dose […]
  Dose.FC.CTG: 0.120

## CC1=C(/C=C/C(=C/C=C/C(C)=C/C(=O)O)c2ccc(C)cc2)C(C)(C)CCC1 [SR11302]
ISC-enriched organoids [7]
  Paneth cell differentiation (functional LYZ secretion), in combination with KPT-330: significantly decreases functional LYZ secretion
  Paneth cell differentiation (functional LYZ secretion), compound alone: also decreases functional LYZ secretion; also recorded: significantly decreases functional LYZ secretion

## O=C(c1ccc(F)c(F)c1Nc1ccc(I)cc1F)N1CC(O)([C@@H]2CCCCN2)C1 [cobimetinib]
ISC-enriched organoids [7]
  Paneth cell differentiation (functional LYZ secretion), in combination with KPT-330: differentiation was enhanced; also recorded: significantly enhance Paneth cell differentiation; also recorded: proved synergistic in combination with KPT-330
  Paneth cell differentiation (functional LYZ secretion), compound alone: did not significantly alter Paneth cell differentiation

From patent publication US20230398130A1, “METHODS AND COMPOSITIONS FOR DIFFERENTIATING STEM CELLS” (Massachusetts Institute of Technology, priority 2020, published 2023)
